Here are results for three compounds from the NIST ThermoML archive (doi:10.1016/j.jct.2018.12.036).

± gives the expanded uncertainty stated by the source.

For one data set the following is noted: 293.15 K, Plate method.
Broadly, the surface tension liquid-gas is the work needed to enlarge the surface of a liquid by unit area. With `CCCC[n+]1ccn(C)c1.O=S(=O)([N-]S(=O)(=O)C(F)(F)F)C(F)(F)F`, the surface tension liquid-gas came out at 33.29 ± 0.43 mN/m.

For `CCCCn1cc[n+](C)c1.F[P-](F)(F)(F)(F)F` [1-butyl-3-methylimidazolium hexafluorophosphate], the surface tension liquid-gas is recorded as 44.56 ± 0.46 mN/m.

`CCCCn1cc[n+](C)c1.F[B-](F)(F)F` [1-butyl-3-methylimidazolium tetrafluoroborate]: the surface tension liquid-gas was 44.75 ± 0.46 mN/m.

The data set is the same for the next values; noted with them: 298.15 K, Plate method.
For the compound `CCCC[n+]1ccn(C)c1.O=S(=O)([N-]S(=O)(=O)C(F)(F)F)C(F)(F)F`, the surface tension liquid-gas is listed as 33.07 ± 0.43 mN/m.

`CCCCn1cc[n+](C)c1.F[P-](F)(F)(F)(F)F` [1-butyl-3-methylimidazolium hexafluorophosphate]: the surface tension liquid-gas came out at 44.32 ± 0.46 mN/m.

As for `CCCCn1cc[n+](C)c1.F[B-](F)(F)F` [1-butyl-3-methylimidazolium tetrafluoroborate], the surface tension liquid-gas is recorded as 44.52 ± 0.46 mN/m.

The data set is the same for the next values; noted with them: 303.15 K, Plate method.
Turning to `CCCC[n+]1ccn(C)c1.O=S(=O)([N-]S(=O)(=O)C(F)(F)F)C(F)(F)F`, the surface tension liquid-gas came to 32.88 ± 0.43 mN/m.

Turning to `CCCCn1cc[n+](C)c1.F[P-](F)(F)(F)(F)F` [1-butyl-3-methylimidazolium hexafluorophosphate], the surface tension liquid-gas was determined as 44.11 ± 0.46 mN/m.

For `CCCCn1cc[n+](C)c1.F[B-](F)(F)F` [1-butyl-3-methylimidazolium tetrafluoroborate], the surface tension liquid-gas is reported as 44.16 ± 0.46 mN/m.

The same data set, now with this note: 308.15 K, Plate method.
On to `CCCC[n+]1ccn(C)c1.O=S(=O)([N-]S(=O)(=O)C(F)(F)F)C(F)(F)F`, for which the surface tension liquid-gas is 32.67 ± 0.43 mN/m.

With `CCCCn1cc[n+](C)c1.F[P-](F)(F)(F)(F)F` [1-butyl-3-methylimidazolium hexafluorophosphate], the surface tension liquid-gas was 43.88 ± 0.46 mN/m.

`CCCCn1cc[n+](C)c1.F[B-](F)(F)F` [1-butyl-3-methylimidazolium tetrafluoroborate]: the surface tension liquid-gas was determined as 43.95 ± 0.46 mN/m.

Still in this data set, the particulars now being: 313.15 K, Plate method.
On to `CCCC[n+]1ccn(C)c1.O=S(=O)([N-]S(=O)(=O)C(F)(F)F)C(F)(F)F`, for which the surface tension liquid-gas was found to be 32.49 ± 0.43 mN/m.

Take `CCCCn1cc[n+](C)c1.F[P-](F)(F)(F)(F)F` [1-butyl-3-methylimidazolium hexafluorophosphate]: the surface tension liquid-gas amounted to 43.63 ± 0.46 mN/m.

For `CCCCn1cc[n+](C)c1.F[B-](F)(F)F` [1-butyl-3-methylimidazolium tetrafluoroborate], the surface tension liquid-gas turned out to be 43.63 ± 0.46 mN/m.

Still in this data set, the particulars now being: 318.15 K, Plate method.
Turning to `CCCC[n+]1ccn(C)c1.O=S(=O)([N-]S(=O)(=O)C(F)(F)F)C(F)(F)F`, the surface tension liquid-gas is given as 32.29 ± 0.43 mN/m.

Take `CCCCn1cc[n+](C)c1.F[P-](F)(F)(F)(F)F` [1-butyl-3-methylimidazolium hexafluorophosphate]: the surface tension liquid-gas is recorded as 43.42 ± 0.46 mN/m.

Take `CCCCn1cc[n+](C)c1.F[B-](F)(F)F` [1-butyl-3-methylimidazolium tetrafluoroborate]: the surface tension liquid-gas is recorded as 43.34 ± 0.46 mN/m.

Staying with this data set, now noted: 323.15 K, Plate method.
In the case of `CCCC[n+]1ccn(C)c1.O=S(=O)([N-]S(=O)(=O)C(F)(F)F)C(F)(F)F`, the surface tension liquid-gas was determined as 32.11 ± 0.43 mN/m.

With `CCCCn1cc[n+](C)c1.F[P-](F)(F)(F)(F)F` [1-butyl-3-methylimidazolium hexafluorophosphate], the surface tension liquid-gas amounted to 43.18 ± 0.45 mN/m.

As to `CCCCn1cc[n+](C)c1.F[B-](F)(F)F` [1-butyl-3-methylimidazolium tetrafluoroborate], the surface tension liquid-gas is recorded as 42.98 ± 0.45 mN/m.
